Broadly, the EC50 is the concentration that produces a half-maximal response. The IC50 is the midpoint of a concentration-inhibition curve.

This passage reports EC50 and IC50 results from US20160002248A1, “GLS1 INHIBITORS FOR TREATING DISEASE” (Board of Regents, The University of Texas System, priority 2014, published 2016).

For one assay, the system named is A549 cells. Nature of the assay: Proliferation Assay (A549 cell viability, Cell Titer Fluor). In kind it is cell-based. The following applies: Homo sapiens, 72 hours. The procedure, abridged: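 A549 cells seeded at 1000 cells/well, left 24 h, then exposed to compound for 72 h at 37 °C, 5% CO2, final DMSO 0.5% (v/v). Viability read by Cell Titer Fluor fluorescence; EC50 from four-parameter logistic fit.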

The target of assay [1] is T1, purified recombinant human GAC (GLS1) (Homo sapiens, UniProt O94925).
T1 sequence (O94925 55-598 isoform O94925-3 limits assumed): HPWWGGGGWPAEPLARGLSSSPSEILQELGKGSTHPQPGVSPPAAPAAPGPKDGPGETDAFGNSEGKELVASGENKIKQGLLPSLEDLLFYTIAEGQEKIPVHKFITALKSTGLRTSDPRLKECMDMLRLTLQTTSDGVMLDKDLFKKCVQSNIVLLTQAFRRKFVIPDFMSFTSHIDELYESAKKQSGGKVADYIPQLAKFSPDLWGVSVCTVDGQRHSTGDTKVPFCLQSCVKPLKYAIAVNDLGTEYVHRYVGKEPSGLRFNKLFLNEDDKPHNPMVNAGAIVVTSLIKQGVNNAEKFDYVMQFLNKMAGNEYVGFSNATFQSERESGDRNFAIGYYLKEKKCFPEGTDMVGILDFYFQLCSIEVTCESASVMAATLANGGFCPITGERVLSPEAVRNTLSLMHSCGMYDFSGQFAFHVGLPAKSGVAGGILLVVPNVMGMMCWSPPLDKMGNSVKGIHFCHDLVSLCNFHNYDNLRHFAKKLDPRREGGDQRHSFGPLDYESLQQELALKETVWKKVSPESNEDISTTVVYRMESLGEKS
Nature of the assay: GLS1 Enzymatic Activity Assay (dual-coupled enzymatic assay). The assay is classed as biochemical. The gist of the method:
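GAC activity measured by coupling glutamate to glutamate oxidase and HRP, generating resorufin from Amplex UltraRed. Enzyme (2 nM) preincubated with 50 mM potassium phosphate 10 min at room temperature, then inhibitor 10 min; 1 mM glutamine substrate, 1% DMSO. Fluorescence 530/590 nm, kinetic or 20-min endpoint; IC50 from four-parameter logistic fit.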

Molecule `COc1cccc(-c2c(C3CC3)[nH]c3nnc(CCCCn4cc(C(=O)NCc5ccccn5)nn4)cc23)c1` [Example 121, 1-{4-[6-cyclopropyl-5-(3-methoxyphenyl)-7H-pyrrolo[2,3-c]pyridazin-3-yl]butyl)-N-(pyridin-2-ylmethyl)-1H-1,2,3-triazole-4-carboxamide] showed a concentration giving a half-maximal response (EC50) with A549 cells of 100 to 500 nM. In addition, in assay [1], the IC50 was less than 100 nM.
For `O=C(NCc1ccccn1)c1cn(CCCCc2cc3c(Cc4ccccc4)c(C4CC4)[nH]c3nn2)nn1` [Example 102, 1-(4-{5-benzyl-6-cyclopropyl-7H-pyrrolo[2,3-c]pyridazin-3-yl}butyl)-N-(pyridin-2-ylmethyl)-1H-1,2,3-triazole-4-carboxamide] the same measures were 500 to 5000 nM and less than 100 nM.
